The values below come from PMC10763615, “Identification and engineering of potent cyclic peptides with selective or promiscuous binding through biochemical profiling and bioinformatic data analysis” (RSC Chemical Biology, 2023).

Where two headings read alike, the source gives them in different places. Positions of bridges follow the written chain, without caps; N, C: chain ends. Residues, ends and D or L forms follow the SMILES beside them.

Common to all, as to format: binding
The target of one assay is T1, FGF-R4 ECD (Homo sapiens, UniProt P22455).
T1 construct: DNA constructs for the extracellular domain (ECD) of human FGF-; HPC4 (C); made in house; host or cells: HEK 293-6E
T1 sequence (P22455 22-369 limits assumed): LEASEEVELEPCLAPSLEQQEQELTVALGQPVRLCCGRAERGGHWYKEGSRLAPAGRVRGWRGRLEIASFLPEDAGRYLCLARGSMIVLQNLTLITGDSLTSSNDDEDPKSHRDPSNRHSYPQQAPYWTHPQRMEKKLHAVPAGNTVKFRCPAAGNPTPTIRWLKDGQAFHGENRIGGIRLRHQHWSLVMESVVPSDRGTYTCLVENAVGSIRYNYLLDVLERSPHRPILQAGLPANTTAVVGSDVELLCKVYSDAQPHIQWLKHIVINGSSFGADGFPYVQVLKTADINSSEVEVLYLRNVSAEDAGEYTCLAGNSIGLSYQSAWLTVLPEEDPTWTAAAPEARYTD
Kind of assay: single concentration BLI of crude peptides. Put shortly: (§1)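 Streptavidin biosensors carrying biotinylated FGF receptor ECD were immersed in peptide (~1 μM for crude single-point runs, a concentration series for purified peptides) and then in peptide-free buffer. KD was obtained by fitting the BLI association and dissociation curves.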

In the next assay the target is T2, FGF-R1C ECD (Homo sapiens, UniProt P11362).
T2 sequence (P11362 22-376 limits assumed): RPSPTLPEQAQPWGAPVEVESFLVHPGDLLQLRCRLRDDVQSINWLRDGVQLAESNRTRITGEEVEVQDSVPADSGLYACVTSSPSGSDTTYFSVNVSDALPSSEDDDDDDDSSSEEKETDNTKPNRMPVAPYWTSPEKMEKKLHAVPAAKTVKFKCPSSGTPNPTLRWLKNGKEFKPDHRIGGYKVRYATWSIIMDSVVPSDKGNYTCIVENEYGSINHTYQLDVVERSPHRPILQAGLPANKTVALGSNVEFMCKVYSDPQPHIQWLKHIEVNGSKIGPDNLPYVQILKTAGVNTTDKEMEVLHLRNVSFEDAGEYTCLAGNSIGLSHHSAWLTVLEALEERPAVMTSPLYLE
The assay is described as follows: biochemical. Further details: DNA constructs for the extracellular domain (ECD) of human FGF-; HPC4 (C); made in house; host or cells: HEK 293-6E. Put shortly:
as §1

The target in the next assay is T3, FGF-R3C ECD (Homo sapiens, UniProt P22607).
T3 sequence (P22607 23-375 limits assumed): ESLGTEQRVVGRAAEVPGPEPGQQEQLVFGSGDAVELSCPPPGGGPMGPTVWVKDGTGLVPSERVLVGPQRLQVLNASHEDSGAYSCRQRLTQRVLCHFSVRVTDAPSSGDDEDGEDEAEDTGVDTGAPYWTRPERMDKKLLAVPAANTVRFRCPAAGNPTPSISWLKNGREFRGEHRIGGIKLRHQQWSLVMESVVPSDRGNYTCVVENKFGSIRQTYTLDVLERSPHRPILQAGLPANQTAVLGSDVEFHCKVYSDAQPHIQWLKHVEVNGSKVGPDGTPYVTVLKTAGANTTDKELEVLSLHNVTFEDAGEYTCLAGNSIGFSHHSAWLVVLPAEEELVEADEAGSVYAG
The assay is described as follows: biochemical. On the set-up: DNA constructs for the extracellular domain (ECD) of human FGF-; HPC4 (C); made in house; host or cells: HEK 293-6E. Summed up:
as §1

The mark [1] stands for this setting: crude T18 selection 1 (1:1:1) peptides, single concentration BLI (Table S4), read-out: KD (4).

The term Kd denotes the equilibrium constant for the complex coming apart. Turning to `CC[C@H](C)[C@@H]1NC(=O)[C@H](CO)NC(=O)[C@@H](NC(=O)[C@H](CCSC)NC(C)=O)CSSC[C@@H](C(=O)NCC(=O)N[C@@H](CO)C(=O)NCC(=O)N[C@@H](CO)C(=O)N[C@@H](CC(=O)O)C(=O)N[C@@H](Cc2ccc(O)cc2)C(=O)N[C@@H](CCCCN)C(=O)N[C@@H](CC(=O)O)C(=O)N[C@@H](CC(=O)O)C(=O)N[C@@H](CC(=O)O)C(=O)N[C@@H](CC(=O)O)C(=O)N[C@@H](CCCCN)C(N)=O)NC(=O)[C@H](CC(C)C)NC(=O)[C@@H]2CCCN2C(=O)[C@H](CCCCN)NC(=O)[C@H]([C@@H](C)O)NC(=O)[C@H]([C@@H](C)CC)NC(=O)[C@H](CCCCN)NC(=O)[C@H](Cc2ccc(O)cc2)NC(=O)[C@H](Cc2c[nH]c3ccccc23)NC(=O)[C@H](CC(C)C)NC1=O` (Ac-MCSILWYKITKPLCGSGSDYKDDDDK-NH2; disulfide 2-14), the Kd on FGF-R4 ECD (setting [1]) is 13 nM; on FGF-R1C ECD, over 10000 nM; at FGF-R3C ECD, over 10000 nM.

On to `CSCC[C@H](NC(C)=O)C(=O)N[C@H]1CSSC[C@@H](C(=O)NCC(=O)N[C@@H](CO)C(=O)NCC(=O)N[C@@H](CO)C(=O)N[C@@H](CC(=O)O)C(=O)N[C@@H](Cc2ccc(O)cc2)C(=O)N[C@@H](CCCCN)C(=O)N[C@@H](CC(=O)O)C(=O)N[C@@H](CC(=O)O)C(=O)N[C@@H](CC(=O)O)C(=O)N[C@@H](CC(=O)O)C(=O)N[C@@H](CCCCN)C(N)=O)NC(=O)[C@H](Cc2c[nH]c3ccccc23)NC(=O)[C@H](CC(C)C)NC(=O)[C@H](CCCNC(=N)N)NC(=O)[C@H](Cc2ccc(O)cc2)NC(=O)[C@H](CC(C)C)NC(=O)[C@H](Cc2c[nH]c3ccccc23)NC(=O)[C@H](CC(C)C)NC(=O)[C@H](CC(=O)O)NC(=O)[C@H](CCCCN)NC(=O)[C@H](CO)NC(=O)[C@H](Cc2ccc(O)cc2)NC(=O)[C@H](CCCCN)NC1=O` (Ac-MCKYSKDLWLYRLWCGSGSDYKDDDDK-NH2; disulfide 2-15), for which the values for the Kd at FGF-R4 ECD (setting [1]), at FGF-R1C ECD and on FGF-R3C ECD were 2 nM, over 10000 nM and over 10000 nM, respectively.

`CC[C@H](C)[C@@H]1NC(=O)[C@H](CC(C)C)NC(=O)[C@H](CCCCN)NC(=O)[C@H](CO)NC(=O)[C@H](Cc2c[nH]c3ccccc23)NC(=O)[C@@H](NC(=O)[C@H](CCSC)NC(C)=O)CSSC[C@@H](C(=O)NCC(=O)N[C@@H](CO)C(=O)NCC(=O)N[C@@H](CO)C(=O)N[C@@H](CC(=O)O)C(=O)N[C@@H](Cc2ccc(O)cc2)C(=O)N[C@@H](CCCCN)C(=O)N[C@@H](CC(=O)O)C(=O)N[C@@H](CC(=O)O)C(=O)N[C@@H](CC(=O)O)C(=O)N[C@@H](CC(=O)O)C(=O)N[C@@H](CCCCN)C(N)=O)NC(=O)[C@H](CCC(N)=O)NC(=O)[C@H](CO)NC(=O)[C@H](CC(C)C)NC(=O)[C@H](Cc2ccc(O)cc2)NC(=O)[C@H](Cc2ccc(O)cc2)NC(=O)[C@H](CCCCN)NC(=O)[C@H]([C@@H](C)CC)NC1=O` (Ac-MCWSKLIIKYYLSQCGSGSDYKDDDDK-NH2; disulfide 2-15): the results for the Kd on FGF-R4 ECD, on FGF-R1C ECD and at FGF-R3C ECD were 16 nM, over 10000 nM and over 10000 nM, respectively.

For the compound `CC[C@H](C)[C@@H]1NC(=O)[C@H](CCCCN)NC(=O)[C@H](Cc2ccc(O)cc2)NC(=O)[C@H](Cc2c[nH]c3ccccc23)NC(=O)[C@H](CC(C)C)NC(=O)[C@H](C(C)C)NC(=O)[C@H]([C@@H](C)O)NC(=O)[C@H](Cc2ccc(O)cc2)NC(=O)[C@H](CC(C)C)NC(=O)[C@H](CC(=O)O)NC(=O)[C@@H](NC(=O)[C@H](CCSC)NC(C)=O)CSSC[C@@H](C(=O)NCC(=O)N[C@@H](CO)C(=O)NCC(=O)N[C@@H](CO)C(=O)N[C@@H](CC(=O)O)C(=O)N[C@@H](Cc2ccc(O)cc2)C(=O)N[C@@H](CCCCN)C(=O)N[C@@H](CC(=O)O)C(=O)N[C@@H](CC(=O)O)C(=O)N[C@@H](CC(=O)O)C(=O)N[C@@H](CC(=O)O)C(=O)N[C@@H](CCCCN)C(N)=O)NC(=O)[C@H](CCC(=O)O)NC(=O)[C@H](CCCCN)NC(=O)[C@H](CCC(N)=O)NC1=O` (Ac-MCDLYTVLWYKIQKECGSGSDYKDDDDK-NH2; disulfide 2-16), the dissociation constant Kd was 19 nM at FGF-R4 ECD (setting [1]), 21 nM at FGF-R1C ECD and over 10000 nM at FGF-R3C ECD.
